Measured values: patent US20090263780A1, “Organ preservation fluid” (priority 2008, published 2009)

Test system: Cortical neurons cultures
Assay: Neuron viability (MTT reduction test) after anoxic insult
Type: cell-based, Sprague-Dawley rats
Procedure: Neuron culture: Cortical neurons cultures were prepared from fetal Sprague-Dawley rats at 17-day gestation. Timed pregnant Sprague-Dawley rats were euthanized with isoflorane. After dissection of the cortical region of the fetal brain, cortical neurons were dispersed by trituration, centrifuged at 250 g for 5 minutes at 4° C., and suspended in a neurobasal medium supplemented with 25 μmol/L glutamic acid, 0.5 mmol/L glutamine, 1% antibiotic-antimycotic solution, and 2% B27 supplement. Cells were plated at 5×10^5 cells/ml on poly-L-lysine-coated 24-well plates. Cytosine (10 μmol/) was added at day 3. Neuron cultures were fed every 4 days with replacement of half of neurobasal medium containing 0.5 mmol/L glutamine, 1% antibiotic-antimycotic solution, and 2% B27 supplement. The culture plates were incubated at 37° C. in a humid atmosphere with 5% CO2. […]
Validation of neurons' survival: Neuronal viability was quantitatively evaluated by a methyl thiazole tetrazolium (MTT) reduction test. This quantifies the formation of a dark blue formazan product formed by the reduction of the tetrazolium ring of MTT by the mitochondrial succinate dehydrogenase in living cells. […] Cell viability corresponded to the value of the optical density read at 570 nm with background subtraction at 630 nm. Results were expressed as percent of the optical density measured in normal control cells.

Substance: B: 2 wt % albumin (native bovine serum albumin, molecular weight 68 kDa, pI 4.8) + ACSF
- Neuronal viability after anoxia, result in words (ACSF supplemented with the polypeptide, anoxic environment, comparison): significantly increased neuronal viability
- Neuron's viability (Percentage, Mean ± SD) (anoxia 60 mins at 37° C., culture media replaced by 2 wt % test polypeptide + ACSF, MTT 24 hours after anoxia, percent of optical density in normal control cells): 96 ± 3.9 Percentage
